The results in this text go back to US10894790B2, “Production method of thiazole derivative” (KYOWA KIRIN CO., LTD., priority 2015, dated 2021).

Molecules are shown by their SMILES. Read-outs that look alike come from different tables or passages of the source.

The nature of data set [1]: Stability test (preservation of crystal, powder X-ray diffraction). The data set is classed as physicochemical. As to the method: Powder X-ray diffraction (permeation method) was measured by pulverizing a sample in an agate mortar, placing an appropriate amount thereof on a sample plate, and measuring diffraction peaks by changing the diffraction angle 2θ from 5° to 40°. The irradiate X ray used was copper Kα ray (CuKα ray), and tube voltage was set to […], tube electric current was set to 40 mA, step angle was set to 0.017°, and counting time was set to 0.56°/sec. The thermal analysis was performed by placing about 2 mg of a sample on an aluminum cell, and measuring differential scanning calorie (DSC) at a temperature rise rate of 10° C./min.
The A crystal obtained in Example 12 was preserved under the conditions of 40° C./75% RH (relative humidity) and 40° C./90% RH (relative humidity) for 6 months each, and powder X-ray diffraction was measured. […] It was confirmed that A crystal is stable even after preservation for a long term under humidified conditions of 40° C./75% RH (relative humidity) and 40° C./90% RH (relative humidity).
The HA crystal obtained in Example 11 was preserved for 2 weeks at 60° C., and then powder X-ray diffraction was measured. […] That is, a part of HA crystal is considered to undergo crystal transition to A crystal at 60° C.

Data set [2] can be described thus: Absorbability test: plasma kinetics of compound IA after oral administration. The data set is classed as in vivo. The following applies: male rats; for Cmax / tmax / AUC(0-inf) / half-life / AUC0→∞ / t1/2: plasma compound IA. As to the method: HA crystal and A crystal obtained in Examples 11 and 12 were orally administered to male rats respectively, and plasma kinetics of compound IA were evaluated.

Where [3] appears, read: male, rat, plasma, po, 10 mg/kg.

`Cc1ccc(C(=O)Nc2nc(-c3ccco3)c(C(=O)C3CCOCC3)s2)cn1` [HA crystal]: the “change of powder X-ray diffraction pattern after preservation” value in data set [1] (60° C., 2 weeks) is “show a diffraction peak characteristic of A crystal”. Also, the “bioavailability (in words)” value in data set [2] is reported as “good bioavailability”. For the same compound, the BA came to 59.5% in data set [2] (dose 1 mg/kg) and 56.8% in data set [2] (dose 10 mg/kg). Further, the peak concentration (Cmax) (in general, the maximum level reached in the sampled fluid or tissue) in data set [2] (male, rat, plasma, po, 1 mg/kg, dose 1 mg/kg, read-out: Cmax) was 1500 ± 100 ng/mL; in data set [2] (male, rat, plasma, po, 10 mg/kg, dose 10 mg/kg, read-out: Cmax) it was 10900 ± 800 ng/mL. For the same compound, the tmax in data set [2] (male, rat, plasma, po, 1 mg/kg, dose 1 mg/kg, read-out: tmax) stood at 1.33 ± 0.58 h; in data set [2] (male, rat, plasma, po, 10 mg/kg, dose 10 mg/kg, read-out: tmax), 2 h. Besides, the AUC(0-inf) (commonly total exposure, with the tail of the curve extrapolated) amounted to 5930 ng·h/mL in data set [2] (male, rat, plasma, po, 1 mg/kg) and 56600 ng·h/mL in data set [2] (setting [3]). Moreover, the half-life (usually how long it takes for the measured level to halve) in data set [2] (male, rat, plasma, po, 1 mg/kg) was 2.08 ± 0.13 h; in data set [2] (setting [3]), 3.43 ± 1.14 h.
Consider `Cc1ccc(C(=O)Nc2nc(-c3ccco3)c(C(=O)C3CCOCC3)s2)cn1` [A crystal], for which the “change of powder X-ray diffraction pattern after preservation” value in data set [1] (40° C./75% RH, 6 months) is listed as “did not show any change”. Besides, the “change of powder X-ray diffraction pattern after preservation” value in data set [1] (40° C./90% RH, 6 months) was “did not show any change”. Further, in data set [2], the “bioavailability (in words)” value is on record as “good bioavailability” and the “rise of plasma concentration, A crystal compared with HA crystal” value is recorded as “increased more rapidly”. For the same compound, in data set [2] (dose 1 mg/kg), the BA is 53.7%, the “AUC0→∞” value came to 5350 ng·h/mL, the maximum concentration (Cmax) is recorded as 1410 ± 270 ng/mL and the t1/2 was 2.26 ± 0.26 h. Besides, the tmax in data set [2] (dose 1 mg/kg) is reported as 1.00 ± 0.00 h. In addition, in data set [2] (dose 10 mg/kg), the BA is given as 51.2%, the “AUC0→∞” value was found to be 51000 ng·h/mL, the Cmax worked out at 11400 ± 1400 ng/mL and the t1/2 was 1.77 ± 0.09 h. This compound returned a tmax in data set [2] (dose 10 mg/kg) of 1.67 ± 0.58 h.
